Experimental data from patent publication US9708314B2, “Heterocyclic amide compound” (NISSAN CHEMICAL INDUSTRIES, LTD., priority 2013, dated 2017).

Experiments:
Assay type in all cases: in vivo
[1] = system: transplanted Oryza sativa; test: Test Example 1: effect on crop, application before weed generation in submerged conditions; conditions: Application herbicide amount 320 g/ha; Seventeenth Table
How it was run: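 Submerged pot test: alluvial soil, 4 cm water, seeds sown mixed, 2.5-leaf rice transplanted; emulsion in water applied to surface day of sowing, dose g/ha; greenhouse 25–30° C.; 3 wk; 0–5 rating.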

Abutilon theophrasti = test: Test Example 4: herbicidal effect by application to foliage (diluvial soil, plastic box); conditions: Application herbicide amount 320 g/ha; foliage application
How it was run: (§1)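 Read-out is a 0–5 visual grade of herbicidal ratio (5: ≥90%, almost withered; 0: ≤5%) taken three weeks after treatment. Compound was applied as a diluted emulsion to stem and leaf parts of 14-day greenhouse-grown plants (25° C. to 30° C.) at rates expressed as g/ha.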

Alopecurus myosuroides = test: as above; conditions: Application herbicide amount 320 g/ha; foliage application
How it was run: as §1

Amaranthus retroflexus = test: as above; conditions: Application herbicide amount 320 g/ha; foliage application
How it was run: as §1

Apera spica-venti. = test: as above; conditions: Application herbicide amount 320 g/ha; foliage application
How it was run: as §1

Avena fatua = test: as above; conditions: Application herbicide amount 320 g/ha; foliage application
How it was run: as §1

Chenopodium album = test: as above; conditions: Application herbicide amount 320 g/ha; foliage application
How it was run: as §1

Digitaria ciliaris = test: as above; conditions: Application herbicide amount 320 g/ha; foliage application
How it was run: as §1

[2] = system: Echinochloa crus-galli var. crus-galli; test: as above; conditions: Application herbicide amount 320 g/ha; foliage application
How it was run: as §1

Galium spurium = test: as above; conditions: Application herbicide amount 320 g/ha; foliage application
How it was run: as §1

Lolium multiflorum Lam. = test: as above; conditions: Application herbicide amount 320 g/ha; foliage application
How it was run: as §1

Setaria viridis = test: as above; conditions: Application herbicide amount 320 g/ha; foliage application
How it was run: as §1

Stellaria media = test: as above; conditions: Application herbicide amount 320 g/ha; foliage application
How it was run: as §1

Veronica persica = test: as above; conditions: Application herbicide amount 320 g/ha; foliage application
How it was run: as §1

[3] = system: Beta vulgaris ssp. vulgaris; test: Test Example 4: effect on crop by application to foliage (diluvial soil, plastic box); conditions: Application herbicide amount 320 g/ha; foliage application
How it was run: as §1

Brassica campestris L. = test: as above; conditions: Application herbicide amount 320 g/ha; foliage application
How it was run: as §1

Glycine max = test: as above; conditions: Application herbicide amount 320 g/ha; foliage application
How it was run: as §1

Triticum aestivum = test: as above; conditions: Application herbicide amount 320 g/ha; foliage application
How it was run: as §1

Zea mays = test: as above; conditions: Application herbicide amount 320 g/ha; foliage application
How it was run: as §1

SMILES	a: transplanted Oryza sativa (effect on crop grade) [1]	M (Abutilon theophrasti) herbicidal effect grade (Abutilon theophrasti)	J (Alopecurus myosuroides) herbicidal effect grade (Alopecurus myosuroides)	N (Amaranthus retroflexus) herbicidal effect grade (Amaranthus retroflexus)	L (Apera spica-venti.) herbicidal effect grade (Apera spica-venti.)	I (Avena fatua) herbicidal effect grade (Avena fatua)	O (Chenopodium album) herbicidal effect grade (Chenopodium album)	F (Digitaria ciliaris) herbicidal effect grade (Digitaria ciliaris)	H (Echinochloa crus-galli var. crus-galli) herbicidal effect grade [2]	Q (Galium spurium) herbicidal effect grade (Galium spurium)	K (Lolium multiflorum Lam.) herbicidal effect grade (Lolium multiflorum Lam.)	G (Setaria viridis) herbicidal effect grade (Setaria viridis)	P (Stellaria media) herbicidal effect grade (Stellaria media)	R (Veronica persica) herbicidal effect grade (Veronica persica)	f (Beta vulgaris ssp. vulgaris) effect on crop grade [3]	g (Brassica campestris L.) effect on crop grade (Brassica campestris L.)	d (Glycine max) effect on crop grade (Glycine max)	e (Triticum aestivum) effect on crop grade (Triticum aestivum)	c (Zea mays) effect on crop grade (Zea mays)
Cc1nnc(NC(=O)c2ccc(C(F)(F)F)n3c(N4CCCC4)nnc23)o1 [1-136]	1 (Herbicidal ratio of 5% or more and less than 20%)	3 (Herbicidal ratio of 40% or more and less than 70%)	0 (Herbicidal ratio of 5% or less (almost no effect))	2 (Herbicidal ratio of 20% or more and less than 40%)	1 (Herbicidal ratio of 5% or more and less than 20%)	0 (Herbicidal ratio of 5% or less (almost no effect))	5 (Herbicidal ratio of 90% or more (almost completely withered))	4 (Herbicidal ratio of 70% or more and less than 90%)	4 (Herbicidal ratio of 70% or more and less than 90%)	0 (Herbicidal ratio of 5% or less (almost no effect))	0 (Herbicidal ratio of 5% or less (almost no effect))	2 (Herbicidal ratio of 20% or more and less than 40%)	4 (Herbicidal ratio of 70% or more and less than 90%)	3 (Herbicidal ratio of 40% or more and less than 70%)	4 (Herbicidal ratio of 70% or more and less than 90%)	0 (Herbicidal ratio of 5% or less (almost no effect))	3 (Herbicidal ratio of 40% or more and less than 70%)	0 (Herbicidal ratio of 5% or less (almost no effect))	1 (Herbicidal ratio of 5% or more and less than 20%)
CCN(C)c1nnc2c(C(=O)Nc3nnco3)ccc(C(F)(F)F)n12 [1-137]	3 (Herbicidal ratio of 40% or more and less than 70%)	3 (Herbicidal ratio of 40% or more and less than 70%)	2 (Herbicidal ratio of 20% or more and less than 40%)	4 (Herbicidal ratio of 70% or more and less than 90%)	4 (Herbicidal ratio of 70% or more and less than 90%)	3 (Herbicidal ratio of 40% or more and less than 70%)	5 (Herbicidal ratio of 90% or more (almost completely withered))	4 (Herbicidal ratio of 70% or more and less than 90%)	5 (Herbicidal ratio of 90% or more (almost completely withered))	3 (Herbicidal ratio of 40% or more and less than 70%)	2 (Herbicidal ratio of 20% or more and less than 40%)	5 (Herbicidal ratio of 90% or more (almost completely withered))	5 (Herbicidal ratio of 90% or more (almost completely withered))	5 (Herbicidal ratio of 90% or more (almost completely withered))	5 (Herbicidal ratio of 90% or more (almost completely withered))	5 (Herbicidal ratio of 90% or more (almost completely withered))	4 (Herbicidal ratio of 70% or more and less than 90%)	2 (Herbicidal ratio of 20% or more and less than 40%)	0 (Herbicidal ratio of 5% or less (almost no effect))
CCN(CC)c1nnc2c(C(=O)Nc3nnco3)ccc(C(F)(F)F)n12 [1-138]	2 (Herbicidal ratio of 20% or more and less than 40%)	3 (Herbicidal ratio of 40% or more and less than 70%)	1 (Herbicidal ratio of 5% or more and less than 20%)	4 (Herbicidal ratio of 70% or more and less than 90%)	3 (Herbicidal ratio of 40% or more and less than 70%)	2 (Herbicidal ratio of 20% or more and less than 40%)	5 (Herbicidal ratio of 90% or more (almost completely withered))	4 (Herbicidal ratio of 70% or more and less than 90%)	5 (Herbicidal ratio of 90% or more (almost completely withered))	2 (Herbicidal ratio of 20% or more and less than 40%)	1 (Herbicidal ratio of 5% or more and less than 20%)	3 (Herbicidal ratio of 40% or more and less than 70%)	5 (Herbicidal ratio of 90% or more (almost completely withered))	5 (Herbicidal ratio of 90% or more (almost completely withered))	5 (Herbicidal ratio of 90% or more (almost completely withered))	4 (Herbicidal ratio of 70% or more and less than 90%)	3 (Herbicidal ratio of 40% or more and less than 70%)	1 (Herbicidal ratio of 5% or more and less than 20%)	0 (Herbicidal ratio of 5% or less (almost no effect))
O=C(Nc1nnco1)c1ccc(C(F)(F)F)n2c(N3CCCC3)nnc12 [1-139]	2 (Herbicidal ratio of 20% or more and less than 40%)	3 (Herbicidal ratio of 40% or more and less than 70%)	0 (Herbicidal ratio of 5% or less (almost no effect))	4 (Herbicidal ratio of 70% or more and less than 90%)	0 (Herbicidal ratio of 5% or less (almost no effect))	1 (Herbicidal ratio of 5% or more and less than 20%)	5 (Herbicidal ratio of 90% or more (almost completely withered))	5 (Herbicidal ratio of 90% or more (almost completely withered))	5 (Herbicidal ratio of 90% or more (almost completely withered))	2 (Herbicidal ratio of 20% or more and less than 40%)	1 (Herbicidal ratio of 5% or more and less than 20%)	3 (Herbicidal ratio of 40% or more and less than 70%)	5 (Herbicidal ratio of 90% or more (almost completely withered))	5 (Herbicidal ratio of 90% or more (almost completely withered))	5 (Herbicidal ratio of 90% or more (almost completely withered))	4 (Herbicidal ratio of 70% or more and less than 90%)	3 (Herbicidal ratio of 40% or more and less than 70%)	1 (Herbicidal ratio of 5% or more and less than 20%)	0 (Herbicidal ratio of 5% or less (almost no effect))
CC(C)c1nnc2c(C(=O)Nc3nnc(C[S+](C)[O-])o3)ccc(C(F)(F)F)n12 (centres unmarked) [1-143]	0 (Herbicidal ratio of 5% or less (almost no effect))	2 (Herbicidal ratio of 20% or more and less than 40%)	0 (Herbicidal ratio of 5% or less (almost no effect))	2 (Herbicidal ratio of 20% or more and less than 40%)	0 (Herbicidal ratio of 5% or less (almost no effect))	0 (Herbicidal ratio of 5% or less (almost no effect))	4 (Herbicidal ratio of 70% or more and less than 90%)	2 (Herbicidal ratio of 20% or more and less than 40%)	4 (Herbicidal ratio of 70% or more and less than 90%)	2 (Herbicidal ratio of 20% or more and less than 40%)	0 (Herbicidal ratio of 5% or less (almost no effect))	0 (Herbicidal ratio of 5% or less (almost no effect))	3 (Herbicidal ratio of 40% or more and less than 70%)	3 (Herbicidal ratio of 40% or more and less than 70%)	2 (Herbicidal ratio of 20% or more and less than 40%)	3 (Herbicidal ratio of 40% or more and less than 70%)	1 (Herbicidal ratio of 5% or more and less than 20%)	0 (Herbicidal ratio of 5% or less (almost no effect))	0 (Herbicidal ratio of 5% or less (almost no effect))
